In brackets after ≈: the same amount, converted by molar mass.
Assays:
Escherichia coli [1] = assay: Antimicrobial activity against Escherichia coli expressing beta-lactamase VEB-1 by CLSI broth microdilution method; assay type: functional
Escherichia coli [2] = assay: Antimicrobial activity against Escherichia coli expressing beta-lactamase NDM-1 by CLSI broth microdilution method; assay type: functional
Escherichia coli [3] = assay: Antimicrobial activity against Escherichia coli expressing beta-lactamase NDM-5 by CLSI broth microdilution method; assay type: functional
[4] = Chemical stability in pH 7.4 potassium phosphate buffer assessed as half life for compound hydrolysis at 37 degC by UPLC and mass spectrometry; assay type: physicochemical
Enterobacteriaceae = assay: Antimicrobial activity against ESBL, KPC and MBL producing Enterobacteriaceae by CLSI broth microdilution method; assay type: functional
Pseudomonas aeruginosa [5] = assay: Antimicrobial activity against Pseudomonas aeruginosa ATCC 27853 by CLSI broth microdilution method; assay type: functional
Pseudomonas aeruginosa [6] = assay: Antimicrobial activity against Pseudomonas aeruginosa expressing delta-mexB/delta-mexXY/delta-mexCD and delta-ampC mutant by CLSI broth microdilution method; assay type: functional
Pseudomonas aeruginosa [7] = assay: Antimicrobial activity against Pseudomonas aeruginosa expressing nalB/delta-mexXY/delta-mexCDoprJ/delta-ampC by CLSI broth microdilution method; assay type: functional
Escherichia coli [8] = assay: microbe, parasite or virus in culture
Description: Antimicrobial activity against wild type Escherichia coli by CLSI broth microdilution method

Escherichia coli [9] = assay: microbe, parasite or virus in culture; remark: listed apart in the source
Description: Antimicrobial activity against Escherichia coli expressing beta-lactamase CTXM-3 by CLSI broth microdilution method

Escherichia coli [10] = assay: microbe, parasite or virus in culture; remark: listed apart in the source
Description: Antimicrobial activity against Escherichia coli expressing beta-lactamase CTXM-15 by CLSI broth microdilution method

Escherichia coli [11] = assay: microbe, parasite or virus in culture; remark: listed apart in the source
Description: Antimicrobial activity against Escherichia coli expressing beta-lactamase GES-1 by CLSI broth microdilution method

Escherichia coli [12] = assay: microbe, parasite or virus in culture; remark: listed apart in the source
Description: Antimicrobial activity against Escherichia coli expressing beta-lactamase IMI-1 by CLSI broth microdilution method

Escherichia coli [13] = assay: microbe, parasite or virus in culture; remark: listed apart in the source
Description: Antimicrobial activity against Escherichia coli expressing beta-lactamase KPC-3 by CLSI broth microdilution method

Escherichia coli [14] = assay: microbe, parasite or virus in culture; remark: listed apart in the source
Description: Antimicrobial activity against Escherichia coli expressing beta-lactamase KPC-4 by CLSI broth microdilution method

Escherichia coli [15] = assay: microbe, parasite or virus in culture; remark: listed apart in the source
Description: Antimicrobial activity against Escherichia coli expressing beta-lactamase KPC-8 by CLSI broth microdilution method

Escherichia coli [16] = assay: microbe, parasite or virus in culture; remark: listed apart in the source
Description: Antimicrobial activity against Escherichia coli expressing beta-lactamase PER-1 by CLSI broth microdilution method

Escherichia coli [17] = assay: microbe, parasite or virus in culture; remark: listed apart in the source
Description: Antimicrobial activity against Escherichia coli expressing beta-lactamase PER-4 by CLSI broth microdilution method

Escherichia coli [18] = assay: microbe, parasite or virus in culture; remark: listed apart in the source
Description: Antimicrobial activity against Escherichia coli expressing beta-lactamase SHV-12 by CLSI broth microdilution method

Escherichia coli [19] = assay: microbe, parasite or virus in culture; remark: listed apart in the source
Description: Antimicrobial activity against Escherichia coli expressing beta-lactamase VEB-4 by CLSI broth microdilution method

Escherichia coli [20] = assay: microbe, parasite or virus in culture; remark: listed apart in the source
Description: Antimicrobial activity against Escherichia coli expressing beta-lactamase VEB-7 by CLSI broth microdilution method

Escherichia coli [21] = assay: microbe, parasite or virus in culture; remark: listed apart in the source
Description: Antimicrobial activity against Escherichia coli expressing beta-lactamase TEM-47 by CLSI broth microdilution method

Escherichia coli [22] = assay: microbe, parasite or virus in culture; remark: listed apart in the source
Description: Antimicrobial activity against Escherichia coli expressing beta-lactamase GIM-1 by CLSI broth microdilution method

Escherichia coli [23] = assay: microbe, parasite or virus in culture; remark: listed apart in the source
Description: Antimicrobial activity against Escherichia coli expressing beta-lactamase SPM-1 by CLSI broth microdilution method

Escherichia coli [24] = assay: microbe, parasite or virus in culture; remark: listed apart in the source
Description: Antimicrobial activity against Escherichia coli expressing beta-lactamase VIM-1 by CLSI broth microdilution method

Escherichia coli [25] = assay: microbe, parasite or virus in culture; remark: listed apart in the source
Description: Antimicrobial activity against Escherichia coli expressing beta-lactamase AmpC by CLSI broth microdilution method

Escherichia coli [26] = assay: microbe, parasite or virus in culture; remark: listed apart in the source
Description: Antimicrobial activity against Escherichia coli expressing beta-lactamase DHA by CLSI broth microdilution method

Escherichia coli [27] = assay: microbe, parasite or virus in culture; remark: listed apart in the source
Description: Antimicrobial activity against Escherichia coli expressing beta-lactamase CMY-2 by CLSI broth microdilution method

Escherichia coli [28] = assay: microbe, parasite or virus in culture; remark: listed apart in the source
Description: Antimicrobial activity against Escherichia coli expressing beta-lactamase MIR-1 by CLSI broth microdilution method

Escherichia coli [29] = assay: microbe, parasite or virus in culture; remark: listed apart in the source
Description: Antimicrobial activity against Escherichia coli expressing beta-lactamase Oxa-18 by CLSI broth microdilution method

Escherichia coli [30] = assay: microbe, parasite or virus in culture; remark: listed apart in the source
Description: Antimicrobial activity against Escherichia coli expressing beta-lactamase Oxa-48 by CLSI broth microdilution method

Escherichia coli [31] = assay: microbe, parasite or virus in culture; remark: listed apart in the source
Description: Antimicrobial activity against Escherichia coli expressing beta-lactamase Oxa-51 by CLSI broth microdilution method

Escherichia coli [32] = assay: microbe, parasite or virus in culture; remark: listed apart in the source
Description: Antimicrobial activity against Escherichia coli expressing beta-lactamase Oxa-146 by CLSI broth microdilution method

Structure (SMILES)	MIC (Escherichia coli [1]) [µg/mL]	MIC (Escherichia coli [2]) [µg/mL]	MIC (Escherichia coli [3]) [µg/mL]	half-life [4] [days]	MIC90 (Enterobacteriaceae) [µg/mL]	MIC (Pseudomonas aeruginosa [5]) [µg/mL]	MIC (Pseudomonas aeruginosa [6]) [µg/mL]	MIC (Pseudomonas aeruginosa [7]) [µg/mL]	MIC (Escherichia coli [8]) [µg/mL]	MIC (Escherichia coli [9]) [µg/mL]	MIC (Escherichia coli [10]) [µg/mL]	MIC (Escherichia coli [11]) [µg/mL]	MIC (Escherichia coli [12]) [µg/mL]	MIC (Escherichia coli [13]) [µg/mL]	MIC (Escherichia coli [14]) [µg/mL]	MIC (Escherichia coli [15]) [µg/mL]	MIC (Escherichia coli [16]) [µg/mL]	MIC (Escherichia coli [17]) [µg/mL]	MIC (Escherichia coli [18]) [µg/mL]	MIC (Escherichia coli [19]) [µg/mL]	also measured
Nc1nc(/C(=N/OC2(C(=O)O)CC2)C(=O)N[C@@H]2C(=O)N(S(=O)(=O)O)[C@@H]2CN2CCOC2=O)cs1 (stereo in doubt) [ANCREMONAM]	32 (≈ 61.7 µM)	0.125 (≈ 0.241 µM)	0.125 (≈ 0.241 µM)	16.7	2 (≈ 3.86 µM)	32 (≈ 61.7 µM)	1 (≈ 1.93 µM)	≥ 64	0.125 (≈ 0.241 µM)	0.125 (≈ 0.241 µM)	0.125 (≈ 0.241 µM)	0.125 (≈ 0.241 µM)	0.125 (≈ 0.241 µM)	0.25 (≈ 0.482 µM)	0.5 (≈ 0.964 µM)	0.125 (≈ 0.241 µM)	64 (≈ 123 µM)	8 (≈ 15.4 µM)	0.5 (≈ 0.964 µM)	8 (≈ 15.4 µM)	MIC (Escherichia coli [20]): 16 µg/mL (≈ 30.9 µM); MIC (Escherichia coli [21]): 0.125 µg/mL (≈ 0.241 µM); MIC (Escherichia coli [22]): 0.125 µg/mL (≈ 0.241 µM); MIC (Escherichia coli [23]): 0.125 µg/mL (≈ 0.241 µM); MIC (Escherichia coli [24]): 0.125 µg/mL (≈ 0.241 µM); MIC (Escherichia coli [25]): 0.25 µg/mL (≈ 0.482 µM); MIC (Escherichia coli [26]): 0.5 µg/mL (≈ 0.964 µM); MIC (Escherichia coli [27]): 0.25 µg/mL (≈ 0.482 µM); MIC (Escherichia coli [28]): 0.125 µg/mL (≈ 0.241 µM); MIC (Escherichia coli [29]): 0.5 µg/mL (≈ 0.964 µM); MIC (Escherichia coli [30]): 0.125 µg/mL (≈ 0.241 µM); MIC (Escherichia coli [31]): 0.125 µg/mL (≈ 0.241 µM); MIC (Escherichia coli [32]): 2 µg/mL (≈ 3.86 µM)
N=C(N)NCc1cnn(C[C@@H]2[C@H](NC(=O)/C(=N\OC3(C(=O)O)CC3)c3csc(N)n3)C(=O)N2S(=O)(=O)O)n1 (stereo in doubt)	16 (≈ 28 µM)	≤ 0.06	0.25 (≈ 0.437 µM)	20.2	4 (≈ 7 µM)	2 (≈ 3.5 µM)	0.25 (≈ 0.437 µM)	16 (≈ 28 µM)	0.06 (≈ 0.105 µM)	0.25 (≈ 0.437 µM)	0.125 (≈ 0.219 µM)	0.06 (≈ 0.105 µM)	0.06 (≈ 0.105 µM)	0.125 (≈ 0.219 µM)	4 (≈ 7 µM)	1 (≈ 1.75 µM)	64 (≈ 112 µM)	4 (≈ 7 µM)	0.25 (≈ 0.437 µM)	16 (≈ 28 µM)	MIC (Escherichia coli [20]): 32 µg/mL (≈ 56 µM); MIC (Escherichia coli [21]): 0.125 µg/mL (≈ 0.219 µM); MIC (Escherichia coli [22]): 0.125 µg/mL (≈ 0.219 µM); MIC (Escherichia coli [23]): 0.06 µg/mL (≈ 0.105 µM); MIC (Escherichia coli [24]): 0.06 µg/mL (≈ 0.105 µM); MIC (Escherichia coli [25]): 0.5 µg/mL (≈ 0.875 µM); MIC (Escherichia coli [26]): 8 µg/mL (≈ 14 µM); MIC (Escherichia coli [27]): 0.5 µg/mL (≈ 0.875 µM); MIC (Escherichia coli [28]): 0.5 µg/mL (≈ 0.875 µM); MIC (Escherichia coli [29]): 0.5 µg/mL (≈ 0.875 µM); MIC (Escherichia coli [30]): 0.06 µg/mL (≈ 0.105 µM); MIC (Escherichia coli [31]): 0.125 µg/mL (≈ 0.219 µM); MIC (Escherichia coli [32]): 4 µg/mL (≈ 7 µM)
